# Laboratory results taken from the supplement of paper PMC10307832.
# How the values were obtained:
# Experiment in all cases: relative viability (nuclei count vs DMSO), 5 days (fraction); higher = more cells survive
# [1] = compound: C[As](C)SC[C@H](NC(=O)CC[C@H](N)C(=O)O)C(=O)NCC(=O)O [Darinaparsin] + COc1cc2c(Oc3ccc(NC(=O)C4(C(=O)Nc5ccc(F)cc5)CC4)cc3F)ccnc2cc1OCCCN1CCOCC1 [Foretinib] (partner 0.25 µM)
# In short: (§1)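 Lung cancer cell lines in 1536-well plates got either a single drug or a fixed anchor-drug dose together with five library-drug doses (not always all listed) in √10 steps, by pin tool, on the day after seeding. Nuclei were counted after 5 days, and relative viability is the treated-to-vehicle ratio of nuclei counts. Values are medians of duplicate plates.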
# [2] = compound: C1CC2=C(C1)C=C(C=C2)OC3=NC(=C4C(=N3)N(C=N4)CC5=CC=C(C=C5)C6=CC=CC=C6)N[C@@H](CC7=CC=CC=C7)CO [QS11] + COc1cc2c(Oc3ccc(NC(=O)C4(C(=O)Nc5ccc(F)cc5)CC4)cc3F)ccnc2cc1OCCCN1CCOCC1 [Foretinib] (partner 0.25 µM)
# In short: as §1
# [3] = compound: C1CC2=C(C1)C=C(C=C2)OC3=NC(=C4C(=N3)N(C=N4)CC5=CC=C(C=C5)C6=CC=CC=C6)N[C@@H](CC7=CC=CC=C7)CO [QS11] + Cc1cc(Nc2cc(N3CCN(C)CC3)nc(Sc3ccc(NC(=O)C4CC4)cc3)n2)n[nH]1 [Tozasertib] (partner 0.1 µM)
# In short: as §1
# [4] = compound: C1CC2=C(C1)C=C(C=C2)OC3=NC(=C4C(=N3)N(C=N4)CC5=CC=C(C=C5)C6=CC=CC=C6)N[C@@H](CC7=CC=CC=C7)CO [QS11] + CC(=O)Nc1cccc(-n2c(=O)n(C3CC3)c(=O)c3c(Nc4ccc(I)cc4F)n(C)c(=O)c(C)c32)c1 [Trametinib] (partner 0.02 µM)
# In short: as §1
Cell Line,relative viability ([1]; first compound 0.08 µM),relative viability ([1]; first compound 0.8 µM),relative viability ([1]; first compound 2.53 µM),relative viability ([1]; first compound 8 µM),relative viability ([2]; first compound 0.08 µM),relative viability ([2]; first compound 0.253 µM),relative viability ([2]; first compound 0.8 µM),relative viability ([2]; first compound 2.53 µM),relative viability ([2]; first compound 8 µM),relative viability ([3]; first compound 0.08 µM),relative viability ([3]; first compound 0.253 µM),relative viability ([3]; first compound 0.8 µM),relative viability ([3]; first compound 2.53 µM),relative viability ([3]; first compound 8 µM),relative viability ([4]; first compound 0.08 µM),relative viability ([4]; first compound 0.253 µM),relative viability ([4]; first compound 0.8 µM),relative viability ([4]; first compound 2.53 µM),relative viability ([4]; first compound 8 µM)
UMC-11,1.16,1.03,0.974,1.25,1.13,1.1,1.07,1.32,1.06,0.174,0.27,0.182,0.181,0.184,0.603,0.548,0.618,0.775,0.898
NCI-H1975,1.13,0.994,0.975,1.12,1.02,1.02,1.04,1.32,1.35,0.823,1.01,0.585,0.408,0.225,0.329,0.246,0.328,0.424,0.327
NCI-H1395,1.13,0.958,0.944,0.952,0.893,0.964,1.02,1,1.09,0.728,0.697,0.748,0.686,0.72,0.935,1.04,1.19,1.01,1.03
SW 1573,1.05,1.01,0.867,1.33,0.862,0.926,1.02,0.853,1.07,0.235,0.138,0.186,0.212,0.197,0.542,0.553,0.519,0.41,0.365
NCI-H441,1.2,1.25,1.07,0.902,1.01,1.19,0.97,0.775,0.746,0.642,0.572,0.582,0.481,0.581,0.59,0.424,0.545,0.56,0.486
HCC-366,0.905,0.91,0.965,1.14,0.985,0.962,–,0.895,0.147,0.133,0.0935,–,0.0603,0.0521,0.348,0.346,–,0.218,0.116
NCI-H1915,1.2,1.08,0.958,1.25,1.17,1.18,–,1.07,1.01,0.472,0.494,–,0.432,0.374,0.292,0.292,–,0.288,0.309
